Laboratory results reported in patent US11352350B2, “IRAK degraders and uses thereof” (Kymera Therapeutics, Inc., priority 2018, dated 2022).
Read-outs that look alike come from different tables or passages of the source.

What was measured:
IRAK4 [1] = target: T1, IRAK4 (Homo sapiens (Human), UniProt Q9NWZ3); assay: IRAK4 MSD degradation in OCI-LY10; assay type: cell-based; conditions: MSD
Method in brief: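 Remaining IRAK4 quantified by electrochemiluminescent MSD sandwich assay with two anti-IRAK4 antibodies. Compounds were dosed as 8 concentrations in 1:3 steps from a 1 to 10 μM final top on OCI-LY10 cells, incubated 4 to 24 h at 37° C. under 5% CO2. DC50 fitted with a three-parameter logistic curve.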

OCI-LY10 = assay: CTG Cell Viability Assay - OCI-LY10; assay type: cell-based, human; conditions: OCI-LY10, 4 days, read-out: CTG Cell Viability Assay - OCI-LY10: Average external-IC50
Method in brief: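 Viability read by CellTiter-Glo luminescence after 4 days at 37° C under 5% CO2 with compound (top 10 μM final, 1:3 steps, 9 doses, DMSO 0.2%). Three-parameter logistic fit gave IC50.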

IRAK4 [2] = target: T1, IRAK4; assay: IRAK4 degradation in human whole blood monocyte - flow cytometry; assay type: cell-based; conditions: read-out: IRAK4 degradation in whole blood monocyte-Flow cytometry: Average external Abs IC50
Description: (§1) Human whole blood IRAK4 degradation flow assay. Whole blood was collected in heparinized tubes and plated on the same day as draw (day 0). Whole blood was aliquoted into deep well plates. Compound plates were prepared and a 10 point, 5-fold dilution was performed with a final DMSO concentration of 0.1%. Compound was added to whole blood deep well plate, sealed and incubated at 37° C., 5% CO2 for 20 hours (for 4 hour treatment, compounds were prepared and added the following day). Following the treatment incubation period (day 1), BD lyse fix (BD #558049) was added to the whole blood plate, placed on plate shaker for 30 seconds and incubated for 10 mins at room temperature. Whole blood was then spun down and washed two times with PBS/0.5% BSA, aspirated to pellet and placed into −80° C. freezer until further processing for flow. On the flow run day, whole blood plates were thawed and samples were transferred to PCR plates. The pre-perm staining cocktail (CD3 Ax488/CD8 BUV805/CD14 BUV395/CD16/56 BV711/CD19 BV785) was added to samples and incubated for 30 minutes at room temperature. Samples were washed two times and permeabilized with Methanol for 10 minutes at 4° C. Samples were washed two times and the post-perm staining cocktail (CD4 PE/IRAK4 Ax647 BD #560315) was added and incubated for 30 minutes at room temperature. Samples were washed two times with PBS/BSA and run on a BD LSRFortessa. Mononuclear cells are gated by SSCH/FSCH and single cells. Monocytes are then gated through CD14 positive gate and lymphocytes are gated through CD14 negative gate. To determine absolute DC50 and max degradation values, MFI values were normalized to DMSO max and 20 hour 10 μM min control. Twenty hour dose curves were calculated using a 4 parameter logistic regression curve fit, no constraints (Top doses were removed if hook effects were observed and the bottom was constrained to 0).

IRAK4 [3] = target: T1, IRAK4; assay: IRAK4 degradation in human whole blood lymphocyte - flow cytometry; assay type: cell-based; conditions: read-out: IRAK4 degradation in whole blood lymphocyte-Flow cytometry: Average external Abs IC50
Description: as §1

TNFα [4] = assay: Human whole blood LPS TNFα assay; assay type: cell-based; conditions: 20 h pretreatment, LPS 5 h, read-out: IRAK4 human whole blood LPS TNFa inhibition: Average external-IC50
Description: Human Whole blood LPS TNFα assay. Whole blood was collected fresh and plated same day into 96 well plates at 180 μL per well. Compound plates were prepared in DMSO as 8-point dose curves in duplicate, starting dose 2 μM, 5-fold. Compounds are added 20 μL into blood for final 200 μL per well. Compound and cells were incubated at 37° C., 5% CO2 for 20 hours. After twenty hours of pretreatment with the compounds, LPS (01 1 1:B4) (Sigma #L2637) was added at 100 ng/ml final concentration and blood incubated an additional five hours at 37° C., 5% CO2. Following assay completion, whole blood plates were spun down at 2000 rpm for 15 minutes at 4° C. 50 μL of plasma was carefully removed and placed into a new 96 well Costar (#3879) plate and stored at −80° C. until further analysis. Meso scale Discovery (MSD) human V-plex assays were used to measure cytokine levels. On day of cytokine analysis, plasma samples were thawed, diluted with V-plex diluent #2, and directly to MSD plates. Assay was further completed per standard manufacturer's protocol. Cytokine data was normalized to LPS stimulated and unstimulated controls. Prism Graphpad was used to generate IC50 using 4 parameter logistic regression curve, free-fit.

TNFα [5] = assay: Human PBMC LPS TNFα assay; assay type: cell-based; conditions: hPBMC, LPS stimulation, read-out: IRAK4 hPBMC LPS TNF-α inhibition: Average external-IC50
Description: Human PBMC LPS TNFα assay. Frozen PBMCs were thawed into RPMI with 10% FBS/1% penicillin/streptomycin and same day plated into 96 well plates at 200,000 PBMC/[…] media per well. Compound plates were prepared in DMSO with D300 cassette as 8-point dose curves in duplicate, starting dose 2 μM, 5-fold. Compounds are added 200 nL into cells for final 200 μL per well. Compound and cells were incubated at 37° C., 5% CO2 for 20 hours. After twenty hours of pretreatment with the compounds, LPS (01 1 1:B4) (Sigma #L2637) was added at 100 ng/ml final concentration and PBMCs incubated an additional five hours at 37° C., 5% CO2. Following assay completion, PBMC plates were spun down at 2000 rpm for 10 minutes. 100 uL of supernatant was carefully removed and placed into a new 96 well Costar (#3879) plate and stored at −80° C. until further analysis. Meso scale Discovery (MSD) human V-plex assays were used to measure cytokine levels. On day of cytokine analysis, supernatant samples were thawed, diluted with V-plex diluent #2, and directly to MSD plates. Assay was further completed per standard manufacturer's protocol. Cytokine data was normalized to LPS stimulated and unstimulated controls. Prism Graphpad was used to generate IC50 using 4 parameter logistic regression curve, free-fit.

[6] = OCI-LY10, 4 hrs, read-out: IRAK4 MSD degradation in OCI-LY10 at 4 hrs: Average external-Abs DC50

T1 sequence (Q9NWZ3 whole entry): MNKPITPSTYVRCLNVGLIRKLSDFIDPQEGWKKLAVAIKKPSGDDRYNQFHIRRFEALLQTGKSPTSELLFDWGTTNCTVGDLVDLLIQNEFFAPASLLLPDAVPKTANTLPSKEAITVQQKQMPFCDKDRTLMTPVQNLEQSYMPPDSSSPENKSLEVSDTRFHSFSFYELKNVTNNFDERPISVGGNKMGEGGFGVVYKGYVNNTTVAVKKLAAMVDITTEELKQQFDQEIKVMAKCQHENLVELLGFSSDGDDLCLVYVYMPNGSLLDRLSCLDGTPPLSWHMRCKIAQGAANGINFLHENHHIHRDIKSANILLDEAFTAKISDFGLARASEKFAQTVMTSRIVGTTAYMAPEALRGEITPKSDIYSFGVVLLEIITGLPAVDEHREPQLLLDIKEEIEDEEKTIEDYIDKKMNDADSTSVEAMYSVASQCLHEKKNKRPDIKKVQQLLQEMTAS

## Cn1c(=O)n(C2CCC(=O)NC2=O)c2ccc(CCCCOCCCCNC[C@H]3CC[C@H](n4cc(NC(=O)c5coc(-c6ccnc(NCC(F)(F)F)c6)n5)c(C(N)=O)n4)CC3)cc21 (stereo partly drawn) [I-9]
IRAK4 [1]; [6]
  DC50: < 10 nM
OCI-LY10; Homo sapiens, OCI-Ly10, 96 h
  IC50: > 1000 nM
IRAK4 [2]
  IC50: < 50 nM
IRAK4 [3]
  DC50: 50 to 100 nM
TNFα [4]
  IC50: > 1000 nM

## O=C1CCC(N2C[C@H](c3ccc(C#CCN4CCO[C@@H](CNC[C@H]5CC[C@H](n6cc(NC(=O)c7coc(-c8ccnc(NCC9CC9)c8)n7)c(C(F)F)n6)CC5)C4)cc3)OC2=O)C(=O)N1 (stereo partly drawn) [I-40]
IRAK4 [1]; [6]
  DC50: 10 to 100 nM
OCI-LY10; Homo sapiens, OCI-Ly10, 96 h
  IC50: < 50 nM
IRAK4 [2]
  IC50: < 50 nM
IRAK4 [3]
  DC50: 100 to 500 nM
TNFα [5]
  IC50: < 50 nM
TNFα [4]
  IC50: 100 to 500 nM

## NC(=O)c1nn([C@H]2CC[C@H](CNCCCOCCCc3cccc4c3oc(=O)n4C3CCC(=O)NC3=O)CC2)cc1NC(=O)c1coc(-c2ccnc(NCC(F)(F)F)c2)n1 (stereo partly drawn) [I-12]
IRAK4 [1]; [6]
  DC50: 10 to 100 nM
OCI-LY10; Homo sapiens, OCI-Ly10, 96 h
  IC50: 500 to 1000 nM
IRAK4 [2]
  DC50: 500 to 1000 nM
IRAK4 [3]
  DC50: 100 to 500 nM
TNFα [4]
  IC50: 500 to 1000 nM

## CN(C[C@@H]1CN(CCCc2ccc3c(c2)n(C)c(=O)n3C2CCC(=O)NC2=O)CCO1)C[C@H]1CC[C@H](n2cc(NC(=O)c3coc(-c4ccnc(NCC5CC5)c4)n3)c(C(F)F)n2)CC1 (stereo partly drawn) [I-36]
IRAK4 [1]; [6]
  DC50: 10 to 100 nM
OCI-LY10; Homo sapiens, OCI-Ly10, 96 h
  IC50: 500 to 1000 nM
IRAK4 [2]
  IC50: < 50 nM
IRAK4 [3]
  DC50: < 50 nM
TNFα [5]
  IC50: 100 to 500 nM
TNFα [4]
  IC50: 100 to 500 nM

## O=C1CCC(n2c3cc(CCCOCCOCCNC[C@H]4CC[C@H](n5cc(NC(=O)c6coc(-c7ccnc(NCC8CC8)c7)n6)c(C(F)F)n5)CC4)ccc3c3cccnc32)C(=O)N1 (stereo partly drawn) [I-81]
IRAK4 [1]; [6]
  DC50: 100 to 1000 nM
OCI-LY10; Homo sapiens, OCI-Ly10, 96 h
  IC50: > 1000 nM
IRAK4 [2]
  IC50: > 1000 nM
IRAK4 [3]
  DC50: > 1000 nM
TNFα [5]
  IC50: 500 to 1000 nM

## CN(CCCOCCCc1cccc2c1n(C)c(=O)n2C1CCC(=O)NC1=O)C[C@H]1CC[C@H](n2cc(NC(=O)c3cccc(C(F)(F)F)n3)c(C(F)F)n2)CC1 (stereo partly drawn) [I-44]
IRAK4 [1]; [6]
  DC50: > 1000 nM
IRAK4 [1]; OCI-LY10, 24 hrs, read-out: IRAK4 MSD degradation in OCI-LY10 at 24 hrs: Average external-Abs DC50
  DC50: > 1000 nM
OCI-LY10; Homo sapiens, OCI-Ly10, 96 h
  IC50: > 1000 nM
TNFα [5]
  IC50: > 1000 nM
TNFα [4]
  IC50: > 1000 nM

## CN(CCCCOCCCCc1cccc2c1n(C)c(=O)n2C1CCC(=O)NC1=O)C[C@H]1CC[C@H](n2cc(NC(=O)c3coc(-c4ccnc(NCC5CC5)c4)n3)c(C(F)F)n2)CC1 (stereo partly drawn) [I-67]
IRAK4 [1]; [6]
  DC50: < 10 nM
OCI-LY10; Homo sapiens, OCI-Ly10, 96 h
  IC50: < 50 nM
IRAK4 [2]
  DC50: 50 to 100 nM
IRAK4 [3]
  DC50: 50 to 100 nM
TNFα [5]
  IC50: 50 to 100 nM

## CN(C[C@H]1CN(CCCc2ccc3c(c2)n(C)c(=O)n3C2CCC(=O)NC2=O)CCO1)C(=O)[C@H]1CC[C@H](n2cc(NC(=O)c3coc(-c4ccnc(NCC5CC5)c4)n3)c(C(F)F)n2)CC1 (stereo partly drawn) [I-18]
IRAK4 [1]; [6]
  DC50: < 10 nM
OCI-LY10; Homo sapiens, OCI-Ly10, 96 h
  IC50: 50 to 100 nM
IRAK4 [2]
  IC50: < 50 nM
IRAK4 [3]
  DC50: 100 to 500 nM
TNFα [4]
  IC50: 100 to 500 nM

## CN(C[C@@H]1CN(CCCc2ccc3c(c2)n(C)c(=O)n3C2CCC(=O)NC2=O)CCO1)C[C@H]1CC[C@H](n2cc(NC(=O)c3coc(-c4ccnc(NCC5CC5)c4)n3)c(C(C)(C)O)n2)CC1 (stereo partly drawn) [I-33]
IRAK4 [1]; [6]
  DC50: < 10 nM
OCI-LY10; Homo sapiens, OCI-Ly10, 96 h
  IC50: > 1000 nM
IRAK4 [2]
  DC50: 500 to 1000 nM
IRAK4 [3]
  DC50: < 50 nM
TNFα [5]
  IC50: 500 to 1000 nM

## O=C1CCC(n2c(=O)oc3c(CCCOCCNC(=O)[C@H]4CC[C@H](n5cc(NC(=O)c6coc(-c7ccnc(NCC8CC8)c7)n6)c(C(F)F)n5)CC4)cccc32)C(=O)N1 (stereo partly drawn) [I-5]
IRAK4 [1]; [6]
  DC50: < 10 nM
OCI-LY10; Homo sapiens, OCI-Ly10, 96 h
  IC50: < 50 nM
IRAK4 [2]
  DC50: 100 to 500 nM
IRAK4 [3]
  DC50: 100 to 500 nM
TNFα [4]
  IC50: > 1000 nM

## CN(CCCOCCCc1cccc2c1n(C)c(=O)n2C1CCC(=O)NC1=O)C(=O)[C@H]1CC[C@H](n2cc(NC(=O)c3coc(-c4ccnc(NCC(F)(F)F)c4)n3)c(C(N)=O)n2)CC1 (stereo partly drawn) [I-29]
IRAK4 [1]; [6]
  DC50: < 10 nM
OCI-LY10
  IC50: > 1000 nM
IRAK4 [2]
  DC50: 500 to 1000 nM
IRAK4 [3]
  DC50: 500 to 1000 nM
TNFα [4]
  IC50: > 1000 nM

## Cn1c(=O)n(C2CCC(=O)NC2=O)c2ccc(CCCOCCNC[C@H]3CC[C@H](n4cc(NC(=O)c5coc(-c6ccnc(NCC(F)(F)F)c6)n5)c(C(N)=O)n4)CC3)cc21 (stereo partly drawn) [I-8]
IRAK4 [1]; [6]
  DC50: 10 to 100 nM
OCI-LY10; Homo sapiens, OCI-Ly10, 96 h
  IC50: > 1000 nM
IRAK4 [2]
  IC50: < 50 nM
IRAK4 [3]
  DC50: < 50 nM
TNFα [4]
  IC50: > 1000 nM

## CN(CCCOCCCc1cccc2c1n(C)c(=O)n2C1CCC(=O)NC1=O)C(=O)[C@H]1CC[C@H](n2cc(NC(=O)c3coc(-c4ccnc(NCC(F)(F)F)c4)n3)c(C(N)=O)n2)CC1 (stereo partly drawn) [I-28, N-[3-carbamoyl-1-[4-[3-[3-[1-(2,6-dioxo-3-piperidyl)-3-methyl-2-oxo-benzimidazol-4-yl]propoxy]propyl-methylcarbamoyl]cyclohexyl]pyrazol-4-yl]-2-[2-(2,2,2-trifluoroethylamino)-4-pyridyl]oxazole-4-carboxamide]
IRAK4 [1]; [6]
  DC50: < 10 nM
OCI-LY10
  IC50: < 50 nM
IRAK4 [2]
  DC50: 50 to 100 nM
IRAK4 [3]
  DC50: 100 to 500 nM
TNFα [4]
  IC50: > 1000 nM

## CN(CC1CCN(Cc2cccc3c2n(C)c(=O)n3C2CCC(=O)NC2=O)CC1)C[C@H]1CC[C@H](n2cc(NC(=O)c3coc(-c4ccnc(NCC5CC5)c4)n3)c(C(F)F)n2)CC1 (stereo partly drawn) [I-76]
IRAK4 [1]; [6]
  DC50: < 10 nM
OCI-LY10; Homo sapiens, OCI-Ly10, 96 h
  IC50: < 50 nM
IRAK4 [2]
  DC50: 50 to 100 nM
IRAK4 [3]
  DC50: 50 to 100 nM
TNFα [5]
  IC50: < 50 nM
